Common to all, as to format: in vivo
The subject of assay [1] is winter barley (HORVX, Hordeum vulgare). Nature of the assay: Test F mixtures with safener cloquintocet-mexyl, pre-/postemergence plant response. The following applies: applied alone. From the text: This test evaluated the effect of mixtures of Compound 3, Compound 11, or Compound 12 with the commercial crop safener cloquintocet-mexyl on three plant species. Seeds of test plants consisting of winter wheat (TRZAW, Triticum aestivum), winter barley (HORVX, Hordeum vulgare), and wild oat (AVEFA, Avena fatua) (a weed) were planted into a blend of loam soil and sand and treated preemergence with a directed soil spray using test chemicals formulated in a non-phytotoxic solvent mixture that included a surfactant. At the same time, plants selected from these crop and weed species were treated with postemergence applications of the test chemicals formulated in the same manner. Plants ranged in height from 2 to 18 cm (1- to 4-leaf stage) for postemergence treatments.
Plants were grown in a greenhouse using supplemental lighting to maintain a photoperiod of about 16 hours; daytime and nighttime temperatures were about 24-30° C. and 19-21° C., respectively. Balanced fertilizer was applied through the watering system. Treatments consisted of Compound 3, Compound 11, or Compound 12 and the above mentioned safener alone and in combination using a spray volume of 457 L/ha. Each treatment was replicated three times. Treated plants and controls were maintained in a greenhouse for 14 to 21 days, after which time all treated plants were compared to controls and visually evaluated. Plant response ratings were calculated as the means of the three replicates and are summarized in Tables F1 to F6, and are based on a scale of 0 to 100 where 0 is no effect and 100 is complete control. Because cloquintocet-mexyl alone caused no injury at the rates tested, the expected effect of a mixture of Compound 3 with cloquintocet-mexyl is the same as the observed effect of Compound 3 applied alone.

The subject of assay [2] is prickly sida (Sida spinosa). Nature of the assay: Test E pre-/postemergence plant response. The following applies: scale 0 to 100. Summed up: (§1)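 Seeds were planted and treated preemergence with compound formulated in a non-phytotoxic solvent mixture containing surfactant; postemergence sprays in the same formulation went onto plants 2 to 18 cm tall (1- to 4-leaf stage). After 14 to 21 days in a greenhouse, injury versus untreated controls was rated visually, 0 (no effect) to 100 (complete control).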

Assay [3] has as its system Virginia (V.) dayflower (Commelina virginica). Nature of the assay: Test E pre-/postemergence plant response. The following applies: scale 0 to 100. In short, it runs like this: as §1
Assay [4] relates to common sowthistle (Sonchus oleraceous). Kind of assay: Test E pre-/postemergence plant response. To be noted: scale 0 to 100. Summed up:
as §1

For another assay, the system named is kochia (Kochia scoparia). Nature of the assay: Test E pre-/postemergence plant response. The following applies: scale 0 to 100. Summed up:
as §1

Assay [5] concerns Russian thistle (Salsola kali). Kind of assay: Test E pre-/postemergence plant response. To be noted: Preemergence, scale 0 to 100. Summed up: as §1

As for `CCc1cc(-c2ccc(C(F)(F)F)cc2)nn1-c1c(O)cnn(C)c1=O` [Compound 11, 4-[5-ethyl-3-[4-(trifluoromethyl)phenyl]-1H-pyrazol-1-yl]-5-hydroxy-2-methyl-3(2H)-pyridazinone], the “HORVX Obsd. (observed effect) plant response rating, scale 0 to 100” value is 5 in assay [1] (postemergence, 4 g a.i./ha); 55 in assay [1] (postemergence, 8 g a.i./ha); 90 in assay [1] (postemergence, 16 g a.i./ha); 22 in assay [1] (preemergence, 4 g a.i./ha); 70 in assay [1] (preemergence, 8 g a.i./ha); 92 in assay [1] (preemergence, 16 g a.i./ha). For the same molecule, the “Plant response rating, Prickly Sida” value in assay [2] (4 g ai/ha, Postemergence) is reported as 0; in assay [2] (16 g ai/ha, Preemergence), 0; in assay [2] (31 g ai/ha, Preemergence), 0; in assay [2] (Postemergence, 8 g ai/ha), 0; in assay [2] (Postemergence, 16 g ai/ha), 0; in assay [2] (Postemergence, 31 g ai/ha) it was 0. The “Plant response rating, Prickly Sida” value in assay [2] (Preemergence, 4 g ai/ha) was 0. Further, the “Plant response rating, Dayflower, V.” value in assay [3] (4 g ai/ha, Postemergence) is listed as 0; in assay [3] (8 g ai/ha, Preemergence) it was 0; in assay [3] (16 g ai/ha, Preemergence), 0; in assay [3] (31 g ai/ha, Preemergence), 0; in assay [3] (Postemergence, 8 g ai/ha), 0; in assay [3] (Postemergence, 16 g ai/ha) it was 0. For the same molecule, the “Plant response rating, Dayflower, V.” value in assay [3] (Postemergence, 31 g ai/ha) is listed as 0; in assay [3] (Preemergence, 4 g ai/ha), 0. Further, the “Plant response rating, Sowthistle” value was 0 in assay [4] (4 g ai/ha, Postemergence); 0 in assay [4] (16 g ai/ha, Preemergence); 0 in assay [4] (Postemergence, 8 g ai/ha); 0 in assay [4] (Postemergence, 16 g ai/ha); 0 in assay [4] (Postemergence, 31 g ai/ha). For the same molecule, the “Plant response rating, Kochia” value was found to be 0 in the assay on kochia (Kochia scoparia) (4 g ai/ha, Postemergence); 0 with kochia (Kochia scoparia) (16 g ai/ha, Preemergence); 0 in the assay on kochia (Kochia scoparia) (31 g ai/ha, Preemergence); 0 in the assay with kochia (Kochia scoparia) (Postemergence, 8 g ai/ha); 0 with kochia (Kochia scoparia) (Postemergence, 16 g ai/ha); 0 with kochia (Kochia scoparia) (Postemergence, 31 g ai/ha). In addition, in the assay with kochia (Kochia scoparia) (Preemergence, 4 g ai/ha), the “Plant response rating, Kochia” value amounted to 0. Besides, the “Plant response rating, Thistle, Russian” value in assay [5] (31 g ai/ha) amounted to 0.
With `CCc1cc(-c2ccc(C(F)(F)F)cc2)nn1-c1c(OS(C)(=O)=O)cnn(C)c1=O` [Compound 19], the “Plant response rating, Prickly Sida” value is 0 in assay [2] (4 g ai/ha, Postemergence); 0 in assay [2] (16 g ai/ha, Preemergence); 0 in assay [2] (31 g ai/ha, Preemergence); 0 in assay [2] (Postemergence, 8 g ai/ha); 0 in assay [2] (Postemergence, 16 g ai/ha); 0 in assay [2] (Postemergence, 31 g ai/ha). The “Plant response rating, Prickly Sida” value in assay [2] (Preemergence, 4 g ai/ha) is recorded as 0. Also, the “Plant response rating, Dayflower, V.” value in assay [3] (4 g ai/ha, Postemergence) stood at 0; in assay [3] (8 g ai/ha, Preemergence), 0; in assay [3] (16 g ai/ha, Preemergence), 0; in assay [3] (Postemergence, 8 g ai/ha) it was 0; in assay [3] (Postemergence, 16 g ai/ha) it was 0; in assay [3] (Postemergence, 31 g ai/ha), 0. For the same molecule, the “Plant response rating, Dayflower, V.” value in assay [3] (Preemergence, 4 g ai/ha) worked out at 0. For the same molecule, the “Plant response rating, Sowthistle” value in assay [4] (4 g ai/ha, Postemergence) is given as 0; in assay [4] (Postemergence, 8 g ai/ha), 0; in assay [4] (Postemergence, 16 g ai/ha), 0; in assay [4] (Postemergence, 31 g ai/ha), 0. The “Plant response rating, Kochia” value is on record as 0 in the assay on kochia (Kochia scoparia) (4 g ai/ha, Postemergence); 0 in the assay with kochia (Kochia scoparia) (16 g ai/ha, Preemergence); 0 in the assay with kochia (Kochia scoparia) (31 g ai/ha, Preemergence); 0 in the assay on kochia (Kochia scoparia) (Postemergence, 16 g ai/ha); 0 in the assay on kochia (Kochia scoparia) (Preemergence, 4 g ai/ha). In addition, in assay [5] (31 g ai/ha), the “Plant response rating, Thistle, Russian” value was 0.
“4-[3-(4-chlorophenyl)-5-methyl-1H-pyrazol-3-yl]-5-hydroxy-2-methyl-3(2H)-pyridazinone [Compound 3]”: the “HORVX Obsd. (observed effect) plant response rating, scale 0 to 100” value in assay [1] (postemergence, 4 g a.i./ha) amounted to 0; in assay [1] (postemergence, 8 g a.i./ha), 0; in assay [1] (postemergence, 16 g a.i./ha), 15; in assay [1] (preemergence, 4 g a.i./ha), 10; in assay [1] (preemergence, 8 g a.i./ha), 32; in assay [1] (preemergence, 16 g a.i./ha), 68.
Turning to `Cc1cc(-c2ccc(Cl)cc2)nn1-c1c(OC(=O)C(C)C)cnn(C)c1=O` [Compound 34], the “Plant response rating, Prickly Sida” value in assay [2] (16 g ai/ha, Preemergence) is reported as 0; in assay [2] (31 g ai/ha, Preemergence), 0; in assay [2] (62 g ai/ha, Preemergence), 0; in assay [2] (Postemergence, 8 g ai/ha), 0; in assay [2] (Postemergence, 16 g ai/ha) it was 0; in assay [2] (Postemergence, 31 g ai/ha) it was 0. Besides, the “Plant response rating, Prickly Sida” value in assay [2] (Postemergence, 62 g ai/ha) is 0. Besides, the “Plant response rating, Dayflower, V.” value in assay [3] (16 g ai/ha, Preemergence) is recorded as 0; in assay [3] (31 g ai/ha, Preemergence), 0; in assay [3] (62 g ai/ha, Preemergence), 0; in assay [3] (Postemergence, 8 g ai/ha) it was 0; in assay [3] (Postemergence, 16 g ai/ha) it was 0; in assay [3] (Postemergence, 31 g ai/ha), 0. Besides, in assay [3] (Postemergence, 62 g ai/ha), the “Plant response rating, Dayflower, V.” value is on record as 0. The “Plant response rating, Sowthistle” value in assay [4] (16 g ai/ha, Preemergence) is recorded as 0; in assay [4] (31 g ai/ha, Preemergence), 0; in assay [4] (62 g ai/ha, Preemergence), 0; in assay [4] (Postemergence, 8 g ai/ha) it was 0; in assay [4] (Postemergence, 16 g ai/ha) it was 0; in assay [4] (Postemergence, 31 g ai/ha), 0. For the same molecule, the “Plant response rating, Sowthistle” value in assay [4] (Postemergence, 62 g ai/ha) was 0. In addition, the “Plant response rating, Kochia” value in the assay with kochia (Kochia scoparia) (16 g ai/ha, Preemergence) was 0; in the assay on kochia (Kochia scoparia) (31 g ai/ha, Preemergence) it was 0; in the assay with kochia (Kochia scoparia) (62 g ai/ha, Preemergence) it was 0. The “Plant response rating, Thistle, Russian” value in assay [5] (16 g ai/ha), in assay [5] (31 g ai/ha) and in assay [5] (62 g ai/ha) was 0 throughout.

Values taken from patent US20100267561A1, “HERBICIDAL PYRIDAZINONE DERIVATIVES” (priority 2007, published 2010).
